In assay [1] the test system is patients with relapsed or refractory MCL. On the set-up: method as in PMID 23782157. The following applies: cited from earlier work.
Another assay deals with Jeko-1 cells. Briefly: MTT assay, cell viability. The format is cell-based. The following applies: Homo sapiens, 72 h, read-out: IC50 values (nM, mean ± S.D.). On the procedure: (§1) The human lymphoma cell lines (Mino, Maver-1, Jeko-1, Z-138, OCI-Ly7, OCI-Ly10, SU-DHL-6, SU-DHL-8, U2932, Daudi, Namalwa, Raji, and Ramos) were purchased from the American Type Culture Collection (ATCC, Manassas, VA, USA) and DSMZ (Braunschweig, Germany). Cells were cultured in RPMI1640 medium containing 10% foetal bovine serum, 100 U/mL penicillin, and […] streptomycin (Invitrogen, Carlsbad, CA, USA) at 37 °C in an atmosphere of 5% CO2. OCI-Ly7 and OCI-Ly10 were cultured in IMDM. Tests for mycoplasma contamination were negative. Ibrutinib and venetocalx were purchased from Selleck Chemicals (Houston, TX, USA).
(§2) Cells (2 × 10^4) were seeded into 96-well sterile plastic plates overnight and then treated with the relevant drugs. After 72 h, 15 μL of MTT solution (5 mg/mL) was added to each well and the plates were incubated for 4 h. Crystalline formazan was solubilized with 100 μL of 10% (w/v) SDS solution for 24 h. Absorbance at 595 nm was read spectrophotometrically using a microplate reader. The results represent at least three independent experiments, and the error bars signify the standard deviation from the mean. The IC50 values were determined using GraphPad Prism software (GraphPad, Inc., La Jolla, CA, USA).
(In general: Tetrazolium assays rely on reduction of a dye to a coloured formazan, in cell work by metabolically active cells.)

In another assay the test system is Mino cells. Briefly: MTT assay, cell viability. The format is cell-based. The following applies: Homo sapiens, 72 h, read-out: IC50 values (nM, mean ± S.D.). How it is done: as §1, §2
A further assay relates to Z-138 cells. Briefly: MTT assay, cell viability. The format is cell-based. The following applies: Homo sapiens, 72 h, read-out: IC50 values (nM, mean ± S.D.). On the procedure:
as §1, §2

The next assay relates to Maver-1 cells. Briefly: MTT assay, cell viability. It counts as cell-based. The conditions noted are these: Homo sapiens, Maver1, 72 h, read-out: IC50 values (nM, mean ± S.D.). How it is done:
as §1, §2

Another assay concerns OCI-Ly10 cells. The experiment in a line: MTT assay, cell viability. The format is cell-based. The conditions noted are these: Homo sapiens, 72 h, read-out: IC50 values (nM, mean ± S.D.). How it is done:
as §1, §2

The next assay has as its system SU-DHL-6 cells. Briefly: MTT assay, cell viability. The format is cell-based. The conditions noted are these: Homo sapiens, 72 h, read-out: IC50 values (nM, mean ± S.D.). On the procedure: as §1, §2
For the next assay, the system named is U2932 cells. The experiment in a line: MTT assay, cell viability. The following applies: Homo sapiens, 72 h, read-out: IC50 values (nM, mean ± S.D.). The format is cell-based. How it is done:
as §1, §2

The test system of assay [2] is patients with relapsed or refractory MCL. The arrangement: method as in PMID 28095146. The conditions noted are these: phase I first-in-human study; cited from earlier work.
Assay [3] concerns venetoclax-resistant cells (Mino/VR-1, Mino/VR-2, Maver-1/VR-1, Maver-1/VR-2). Briefly: MTT assay in cells with acquired resistance to venetoclax. It counts as cell-based, human. The following applies: all resistant cells vs parental Mino and Maver-1, 72 h. How it is done:
Maver-1/VR cells were established by chronic, repeated exposure to increasing venetoclax doses up to 1 μM for more than 8 months. Maver-1/VR cells were cloned by single-cell culture, and these resistant sublines were designated as Maver-1/VR-1 and Maver-VR-2. In all studies, resistant cells were cultured in drug-fee medium for >1 week to eliminate the effects of venetoclax. The genetic identity of each subclone with the parental cells was verified by short tandem repeat (STR) analysis conducted at Cosmogenetech (Cosmogenetech co. Ltd., Seoul, Korea) according to established protocols.
as §2

Structures are written as SMILES. Where two headings read alike, the source gives them in different places.

This is an account of results in PMC6510728, “Efficacy of the novel CDK7 inhibitor QS1189 in mantle cell lymphoma” (Scientific Reports, 2019).

A word on the IC50: it is the concentration at which inhibition is half-maximal. Turning to `C=CC(=O)N1CCC[C@@H](n2nc(-c3ccc(Oc4ccccc4)cc3)c3c(N)ncnc32)C1` [Ibrutinib, ibrutinib], the “best overall response rate” value in assay [1] is reported as 68%. For the same compound, the complete response rate in assay [1] is 21%. Moreover, the median progression-free survival in [1] is recorded as 13.9 months. In addition, the IC50 in the assay on Jeko-1 cells is over 10000 nM; in the assay with Mino cells it was over 1000 nM; with Z-138 cells it was over 10000 nM; in the assay on Maver-1 cells, over 10000 nM.
Consider `CC1(C)CCC(CN2CCN(c3ccc(C(=O)NS(=O)(=O)c4ccc(NCC5CCOCC5)c([N+](=O)[O-])c4)c(Oc4cnc5[nH]ccc5c4)c3)CC2)=C(c2ccc(Cl)cc2)C1` [Venetoclax, venetoclax], for which the IC50 is 35.3 nM in the assay on OCI-Ly10 cells; 66.9 nM with SU-DHL-6 cells; over 1000 nM in the assay with Jeko-1 cells; 121 nM in the assay with U2932 cells; 275 ± 62.9 nM in the assay on Mino cells; over 1000 nM in the assay on Z-138 cells. Besides, the IC50 in the assay with Maver-1 cells was determined as 2.5 ± 0.4 nM. Moreover, the “best overall response rate” value in [2] is 75%. Further, in assay [2], the complete response rate is reported as 21%. Further, the median progression-free survival in [2] is reported as 14 months. In addition, the “fold higher resistance to venetoclax than the parental cells” value in assay [3] is listed as 10–100 fold.
